Experimental data taken from patent publication US11638712B2, “Bis(acetamidophenyl) guanidinophenylethylphosphonates for use in the prevention and/or treatment of PAR-related diseases” (Universiteit Antwerpen, priority 2016, dated 2023).

Experiments:
KLK8 = molecular target: T1, KLK8 (Homo sapiens, UniProt O60259); test: in vitro serine protease inhibition profile: KLK8; type: biochemical
T1 sequence (O60259 33-260): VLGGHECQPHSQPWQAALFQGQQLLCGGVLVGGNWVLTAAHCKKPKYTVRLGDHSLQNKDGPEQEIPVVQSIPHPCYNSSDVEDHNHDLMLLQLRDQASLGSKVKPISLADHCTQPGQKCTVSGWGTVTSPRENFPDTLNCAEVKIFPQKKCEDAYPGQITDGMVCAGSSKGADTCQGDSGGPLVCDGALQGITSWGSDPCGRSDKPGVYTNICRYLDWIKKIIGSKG

tPA = tPA (Homo sapiens, UniProt P00750); test: in vitro serine protease inhibition profile: tPA; type: biochemical
tPA, sequence (P00750 36-562, species assumed): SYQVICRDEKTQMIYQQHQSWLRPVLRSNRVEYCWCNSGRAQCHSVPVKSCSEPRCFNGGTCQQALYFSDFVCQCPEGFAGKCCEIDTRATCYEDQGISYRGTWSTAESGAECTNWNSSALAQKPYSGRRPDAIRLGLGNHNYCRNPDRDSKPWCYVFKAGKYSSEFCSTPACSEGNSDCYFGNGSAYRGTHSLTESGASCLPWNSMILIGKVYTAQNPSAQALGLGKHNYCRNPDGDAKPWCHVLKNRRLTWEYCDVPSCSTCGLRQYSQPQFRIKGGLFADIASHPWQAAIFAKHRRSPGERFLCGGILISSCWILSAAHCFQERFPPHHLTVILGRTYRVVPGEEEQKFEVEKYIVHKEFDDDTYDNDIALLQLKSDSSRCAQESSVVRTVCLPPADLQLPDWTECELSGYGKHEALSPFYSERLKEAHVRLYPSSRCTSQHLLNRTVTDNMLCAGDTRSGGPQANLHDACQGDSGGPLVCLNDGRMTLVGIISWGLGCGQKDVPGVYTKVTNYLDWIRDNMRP

cathepsinG = molecular target: T2, cathepsinG (Homo sapiens, UniProt P08311); test: in vitro serine protease inhibition profile: cathepsinG; type: biochemical
T2 sequence (P08311 21-244): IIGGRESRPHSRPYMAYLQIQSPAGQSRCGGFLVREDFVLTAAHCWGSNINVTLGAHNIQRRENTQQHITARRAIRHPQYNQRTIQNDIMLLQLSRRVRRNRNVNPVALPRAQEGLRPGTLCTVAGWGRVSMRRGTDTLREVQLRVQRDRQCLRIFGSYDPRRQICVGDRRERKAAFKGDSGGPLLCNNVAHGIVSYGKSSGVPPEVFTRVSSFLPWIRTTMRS

matriptase = molecular target: T3, matriptase (Homo sapiens, UniProt Q9Y5Y6); test: in vitro serine protease inhibition profile: matriptase; type: biochemical
T3 sequence (Q9Y5Y6 1-855): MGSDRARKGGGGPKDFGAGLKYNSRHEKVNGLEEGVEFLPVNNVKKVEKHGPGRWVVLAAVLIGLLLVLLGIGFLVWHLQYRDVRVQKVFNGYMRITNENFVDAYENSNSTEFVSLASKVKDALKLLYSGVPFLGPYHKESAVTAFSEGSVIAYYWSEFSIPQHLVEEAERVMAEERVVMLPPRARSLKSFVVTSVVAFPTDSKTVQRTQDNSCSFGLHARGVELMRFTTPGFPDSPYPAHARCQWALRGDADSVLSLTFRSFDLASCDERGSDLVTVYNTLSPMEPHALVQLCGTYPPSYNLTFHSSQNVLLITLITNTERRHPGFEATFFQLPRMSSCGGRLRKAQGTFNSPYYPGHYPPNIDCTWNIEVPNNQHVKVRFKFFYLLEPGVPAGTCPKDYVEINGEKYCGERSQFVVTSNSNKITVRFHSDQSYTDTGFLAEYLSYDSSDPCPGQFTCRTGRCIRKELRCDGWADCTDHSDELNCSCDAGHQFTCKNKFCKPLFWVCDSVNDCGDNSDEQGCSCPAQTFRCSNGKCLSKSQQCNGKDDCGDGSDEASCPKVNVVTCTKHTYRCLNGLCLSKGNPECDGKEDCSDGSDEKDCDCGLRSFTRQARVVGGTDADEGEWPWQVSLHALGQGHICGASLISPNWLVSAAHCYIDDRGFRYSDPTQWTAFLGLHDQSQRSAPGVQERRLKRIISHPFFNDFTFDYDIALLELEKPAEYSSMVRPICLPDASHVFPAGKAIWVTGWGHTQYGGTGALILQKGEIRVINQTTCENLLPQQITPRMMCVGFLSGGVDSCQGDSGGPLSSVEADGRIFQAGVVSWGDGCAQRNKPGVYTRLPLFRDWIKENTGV

post-colitis rats = test: post-colitis rat model for visceral pain, visceromotor response (VMR) to colorectal distension; conditions: for effect on VMRs (visceral pain) / effective dose in visceral pain model: post-colitis rats; for effective dose in visceral pain model: i.p.
Procedure: Male Sprague-Dawley rats (200-225 g; Charles River, Italy) were used in all experiments. Rats were housed at a constant room temperature (22±2° C.) and humidity (60%). The animals had unlimited access to water and food and were kept on a 12 h:12 h day-night cycle. They were allowed to acclimatize for at least 1 week before the start of the experiments.
In this set-up, a mild colitis was induced in the post-colitis group on day 0, using a TNBS-enema. The control group received an intrarectal administration with 0.9% NaCl. The presence of colitis was verified by a colonoscopy on day 3. From day 10 onwards, a colonoscopy was performed every 4 days to follow-up the healing of the colonic mucosa. When the colonic mucosa was completely healed, further experiments were performed 3 days later. […] After the VMR measurement, the animals were sacrificed.
TNBS-colitis was induced at day 0 using a TNBS-enema (4 mg TNBS, 50% ethanol). […] Control animals received 0.25 ml 0.9% NaCl intrarectally. The animals were kept in a tail-up position during 1 min and were then allowed to recover in a Trendelenburg position.
Electromyographic (EMG) electrodes were implanted into the external abdominal muscle and 3 days later, the VMR experiment was performed in conscious rats. A lubricated balloon (length 5 cm) was introduced into the colorectum of the animal and connected to a barostat (Distender Series II Barostat, G&J Electronics, Canada). The EMG electrodes were attached to a data-acquisition system and a phasic distension protocol (10-20-30-40-60 mmHg, 20 s, 4 min interval) was sent through the barostat. […] The VMR was quantified using the area under the curve (AUC) of the EMG signal during the distension (20 s) corrected for the EMG signal before the distension (20 s).
22.0. The results of the VMR experiments analyzed using a Generalized Estimating Equations (GEE) test with Least Significant Difference (LSD) post-hoc test. A p-value<0.05 was considered as being statistically significant. The graphs were made with GraphPad Prism 6.0.
Visceral sensitivity was assessed using the visceromotor responses (VMRs) to a colorectal distension, shown in the graphs below as area under the curve (AUC; y-axis; μV.20 s-1) for each distension pressure (x-axis; mmHg). Serine proteases seem to play an important role in the pathogenesis of visceral pain.

tryptase = tryptase (Homo sapiens, UniProt Q15661); test: in vitro serine protease inhibition profile: tryptase; type: biochemical
tryptase, sequence (Q15661 31-275): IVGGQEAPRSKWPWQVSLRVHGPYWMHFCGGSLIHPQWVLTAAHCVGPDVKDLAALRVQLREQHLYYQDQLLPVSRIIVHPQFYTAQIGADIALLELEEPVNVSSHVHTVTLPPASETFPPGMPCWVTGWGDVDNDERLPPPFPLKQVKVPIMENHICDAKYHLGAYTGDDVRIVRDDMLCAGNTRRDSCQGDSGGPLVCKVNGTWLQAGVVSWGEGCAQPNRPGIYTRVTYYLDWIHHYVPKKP

FXIIa = molecular target: T4, FXIIa (Homo sapiens, UniProt P00748); test: in vitro serine protease inhibition profile: FXIIa; type: biochemical
T4 construct: panel of serine proteases: uPA, tPA, thrombin, plasmin, FXIIa
T4 sequence (P00748 373-615 limits assumed, other chains not shown): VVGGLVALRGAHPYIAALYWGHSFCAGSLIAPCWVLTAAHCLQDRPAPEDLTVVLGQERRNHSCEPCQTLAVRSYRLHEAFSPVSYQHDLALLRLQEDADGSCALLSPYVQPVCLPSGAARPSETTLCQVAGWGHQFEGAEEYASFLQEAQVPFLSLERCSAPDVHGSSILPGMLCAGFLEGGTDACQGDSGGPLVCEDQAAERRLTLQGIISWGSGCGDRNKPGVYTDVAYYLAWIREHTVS

uPA = uPA (Homo sapiens, UniProt P00749); test: in vitro serine protease inhibition profile: uPA; type: biochemical
plasmin = molecular target: T5, plasmin (Homo sapiens, UniProt P00747); test: in vitro serine protease inhibition profile: plasmin; type: biochemical
T5 construct: panel of serine proteases: uPA, tPA, thrombin, plasmin, FXIIa
T5 sequence (P00747 581-810 limits assumed, species assumed): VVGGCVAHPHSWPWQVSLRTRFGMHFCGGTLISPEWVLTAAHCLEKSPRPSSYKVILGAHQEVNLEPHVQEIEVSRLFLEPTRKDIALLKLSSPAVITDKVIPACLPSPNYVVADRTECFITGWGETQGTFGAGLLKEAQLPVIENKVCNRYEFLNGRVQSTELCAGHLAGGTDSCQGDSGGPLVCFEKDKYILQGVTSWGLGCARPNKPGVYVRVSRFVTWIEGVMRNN
T5 sequence (P00747 97-580 partner limits assumed, species assumed): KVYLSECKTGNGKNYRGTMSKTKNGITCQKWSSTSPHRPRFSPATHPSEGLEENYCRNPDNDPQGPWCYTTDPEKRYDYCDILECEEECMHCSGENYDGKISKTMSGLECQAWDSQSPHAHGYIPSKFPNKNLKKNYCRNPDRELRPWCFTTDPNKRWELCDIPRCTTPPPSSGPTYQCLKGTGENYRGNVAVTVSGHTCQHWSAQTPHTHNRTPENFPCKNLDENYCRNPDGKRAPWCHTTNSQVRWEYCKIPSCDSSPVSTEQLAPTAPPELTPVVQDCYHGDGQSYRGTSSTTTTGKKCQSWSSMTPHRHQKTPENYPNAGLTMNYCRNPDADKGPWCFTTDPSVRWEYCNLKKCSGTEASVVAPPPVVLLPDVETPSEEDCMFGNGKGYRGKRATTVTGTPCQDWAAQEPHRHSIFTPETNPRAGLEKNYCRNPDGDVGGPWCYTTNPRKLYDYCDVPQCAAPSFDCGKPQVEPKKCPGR

KLK1 = KLK1 (Homo sapiens, UniProt P06870); test: in vitro serine protease inhibition profile: KLK1; type: biochemical
KLK1, sequence (P06870 25-262, species assumed): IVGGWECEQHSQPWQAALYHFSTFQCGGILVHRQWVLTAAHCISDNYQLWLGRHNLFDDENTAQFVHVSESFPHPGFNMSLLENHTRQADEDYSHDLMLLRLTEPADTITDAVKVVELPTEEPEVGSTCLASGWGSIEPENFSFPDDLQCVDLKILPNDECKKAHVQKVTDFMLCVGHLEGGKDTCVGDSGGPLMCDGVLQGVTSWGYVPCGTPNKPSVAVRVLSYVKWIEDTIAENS

[1] = 1 mg/kg i.p., single administration

SMILES | IC50 (KLK8) [nM] | IC50 (tPA) [nM] | IC50 (cathepsinG) [nM] | IC50 (matriptase) [nM] | effect on VMRs (visceral pain) (post-colitis rats; [1]) | effect on VMRs (visceral pain) (post-colitis rats; 2.5 mg/kg i.p.) | effective dose in visceral pain model (post-colitis rats) | side effect observed (post-colitis rats; rats, 5 mg/kg) | IC50 (tryptase) [nM] | IC50 (FXIIa) [nM] | IC50 (uPA) [nM] | IC50 (plasmin) [nM] | IC50 (KLK1) [nM] | effect on visceral sensitivity (post-colitis rats; control rats, 1 mg/kg i.p.) | effect on VMRs (visceral pain) (post-colitis rats; 0.01 mg/kg i.p., single administration 30 min before VMR) | effect on VMRs (visceral pain) (post-colitis rats; 0.1 mg/kg i.p., single administration)
COC(=O)NC(Cc1ccc(NC(=N)N)cc1)P(=O)(Oc1ccccc1)Oc1ccccc1 (stereo not drawn) [Compound 1] | 28 | > 2500 | 329 | 82 | no clear reduction of the VMRs was seen | visceral pain had completely disappeared | at least 2.5 mg/kg | sedation was observed | 93 | > 2500 | 4 | > 2500 | > 2500 |  |  | 
CC(=O)Nc1ccc(OP(=O)(Oc2ccc(NC(C)=O)cc2)C(Cc2ccc(NC(=N)N)cc2)NC(=O)OCc2ccccc2)cc1 (stereo not drawn) [Compound 4] | 2 | > 2500 | 120 | 3 | visceral pain had completely disappeared |  | 0.1 mg/kg |  | 5 | 1610 | 2 | > 2500 | > 2500 | no significant effect on visceral sensitivity | no significant effect | significantly lowered VMRs
